In PMC6982123 (ACS chemical neuroscience, 2019):
Entries after “also recorded” stand apart in the source; their conditions may differ. Read-outs that look alike come from different tables or passages of the source. Square brackets hold non-standard residues; d marks the D form. Peptide text beside a SMILES is read from it. * marks the point of attachment. ξ: configuration not given here. Aoe(9ξ) = N[C@@H](CCCCCC(=O)C1CO1)C(=O)O; Asu = N[C@@H](CCCCCC(=O)O)C(=O)O; dPip = O=C(O)[C@H]1CCCCN1; NHOH = ON*

Experiments:
PGRN [1] = settings: cited from earlier work
H3K9ac [2] = settings: treatment at 10 μM; cited from earlier work
H3K9ac [3] = assay: Histone H3 acetylation Western blot in NPCs; format: cell-based, human
PGRN [4] = assay: Intracellular PGRN ELISA in iPSC-derived NPCs; format: cell-based, human; settings: for Effect on PGRN (1 μM, NPCs) / PGRN induction (in words): 18 h treatment; for Effect on PGRN (1 μM, NPCs): intracellular PGRN; for PGRN induction (in words): Figure 2; for EC50: Homo sapiens, read-out: EC50 of PGRN induction (dose-response curves)
HDAC1 = HDAC1 (Homo sapiens, UniProt Q13547); assay: biochemical; format: biochemical
HDAC2 = HDAC2 (Homo sapiens, UniProt Q92769); format: biochemical
HDACs 1–3 = assay: HDAC inhibition kinetics, summary statement over HDACs 1-3; format: biochemical; settings: summary over HDACs 1–3 (Tables 1 and S1)
[5] = molecular target: HDAC3 in combination with the DAD domain of NCoR2 (Homo sapiens, UniProt O15379); settings: read-out: Ki HDAC3; cited from earlier work
[6] = tested on: human iPSC-derived NPCs and Ngn2 neurons; assay: Cellular viability during PGRN experiments; format: cell-based; settings: 10 μM, 18 h treatment (Figure 2)
HDAC6 = settings: previously reported; cited from earlier work
[7] = kinetic model from progression curves

HDAC1, sequence (Q13547 9-376 limits assumed): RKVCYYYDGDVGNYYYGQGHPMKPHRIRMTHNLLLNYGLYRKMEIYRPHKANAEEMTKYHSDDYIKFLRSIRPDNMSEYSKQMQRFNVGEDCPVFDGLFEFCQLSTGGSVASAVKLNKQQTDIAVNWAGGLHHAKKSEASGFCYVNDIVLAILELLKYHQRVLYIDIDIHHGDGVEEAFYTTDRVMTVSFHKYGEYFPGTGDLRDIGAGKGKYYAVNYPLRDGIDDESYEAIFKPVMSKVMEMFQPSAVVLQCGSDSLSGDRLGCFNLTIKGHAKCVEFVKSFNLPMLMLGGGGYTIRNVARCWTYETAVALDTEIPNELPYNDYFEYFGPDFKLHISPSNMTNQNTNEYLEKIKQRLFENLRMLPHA
HDAC2, sequence (Q92769 9-376 limits assumed): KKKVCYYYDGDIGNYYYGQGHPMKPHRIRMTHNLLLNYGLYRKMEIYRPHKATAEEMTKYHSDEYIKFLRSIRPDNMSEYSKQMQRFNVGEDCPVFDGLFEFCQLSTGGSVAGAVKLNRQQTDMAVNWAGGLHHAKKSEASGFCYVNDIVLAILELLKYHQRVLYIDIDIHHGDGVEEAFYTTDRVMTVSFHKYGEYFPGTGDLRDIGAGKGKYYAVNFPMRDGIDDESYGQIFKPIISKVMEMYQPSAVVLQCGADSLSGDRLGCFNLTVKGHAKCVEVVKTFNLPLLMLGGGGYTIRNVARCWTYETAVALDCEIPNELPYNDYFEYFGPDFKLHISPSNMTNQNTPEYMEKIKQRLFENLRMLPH
HDAC3 in combination with the DAD domain of NCoR2, sequence (O15379 whole entry, the tested form may be a part): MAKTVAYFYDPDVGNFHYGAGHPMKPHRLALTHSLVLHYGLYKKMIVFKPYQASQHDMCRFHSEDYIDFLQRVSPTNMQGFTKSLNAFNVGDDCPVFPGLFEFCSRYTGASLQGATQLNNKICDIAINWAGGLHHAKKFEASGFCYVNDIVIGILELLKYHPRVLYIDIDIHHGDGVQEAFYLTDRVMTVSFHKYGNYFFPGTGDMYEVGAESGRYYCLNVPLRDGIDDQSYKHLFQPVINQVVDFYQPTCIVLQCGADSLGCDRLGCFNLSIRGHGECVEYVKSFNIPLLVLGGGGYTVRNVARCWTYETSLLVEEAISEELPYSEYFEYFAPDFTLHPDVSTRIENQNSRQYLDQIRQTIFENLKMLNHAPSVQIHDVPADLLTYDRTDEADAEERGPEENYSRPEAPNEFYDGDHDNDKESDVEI
HDAC3 in combination with the DAD domain of NCoR2, sequence (Q9Y618 395-489 partner limits assumed): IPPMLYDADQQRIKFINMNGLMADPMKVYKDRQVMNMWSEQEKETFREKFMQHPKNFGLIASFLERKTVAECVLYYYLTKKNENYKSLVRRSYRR

Compound | Effect on H3K9ac (1 μM, NPCs) (H3K9ac [3]; NPCs, 18 h treatment) | Effect on PGRN (1 μM, NPCs) (PGRN [4]; NPCs) | PGRN induction (in words) (PGRN [4]; NPCs) | Mechanism of binding HDAC1 (HDAC1; [7]) | EC50 (PGRN [4]; 18 h) [nM] | Mechanism of binding HDAC2 (HDAC2; [7]) | dissociative half-life (dis. t½) (HDACs 1–3) | further results
O=C(CCCCCCC(=O)Nc1ccccc1)NO [Compound 1, SAHA] | – | – | – | – | – | – | – | Effect on PGRN (NPCs) (PGRN [1]; treatment at 10 μM): >2 fold incr.‡, [10]; Effect on H3K9ac (NPCs) (H3K9ac [2]): >20 fold incr.‡, [10]
O=C(CCCCCCC(=O)C(F)(F)F)Nc1ccccc1 [Compound 2, SATK] | No change | No change | not able to affect PGRN production | – | – | – | – | –
CC(=O)Nc1ccc(C(=O)Nc2ccccc2N)cc1 [Compound 3, tacedinaline] | – | – | not able to affect PGRN production | mechanism B type of slow-binding inhibition | > 20000 | – | – | Intensity of histone marks (H3 acetylation at K9 and K27) (H3K9ac [3]; Western blot, 18 h treatment, Figure 3 and S7): levels comparable to panobinostat; Effect on H3K9ac (NPCs) (H3K9ac [3]; treatment at 10 μM, NPCs, 18 h): ~18 fold incr^‡; Mechanism of binding HDAC2 (HDAC2): mechanism B type of slow-binding inhibition; Effect on PGRN (NPCs) (PGRN [4]; treatment at 10 μM, NPCs, 18 h): Decrease^‡
CC(=O)Nc1ccc(C(=O)Nc2cc(-c3cccs3)ccc2N)cc1 [Compound 4, Cpd-60] | – | – | – | – | – | – | – | PGRN induction (in words) (PGRN [1]; human neuronal cell culture): not able to affect PGRN production
Cc1[nH]c2ccccc2c1CCNCc1ccc(/C=C/C(=O)NO)cc1 [Compound 5, panobinostat] | ~36 fold incr. | ~2.3 fold incr. | – | – | 200 ± 10 | slow, tight-binding inhibition profiles (mechanism B); also recorded: effectively irreversible behavior | over 20 min | –
O=C(CCCCC[C@@H]1NC(=O)[C@H]2CCCCN2C(=O)[C@H](Cc2ccccc2)NC(=O)[C@H](Cc2ccccc2)NC1=O)C1CO1 (stereo partly shown) [Compound 6, trapoxin A] (cyclo(FF[dPip][Aoe(9ξ)])) | ~5.0 fold incr. | ~2.4 fold incr. | substantial increase in PGRN | mechanism A kinetics | 22 ± 1 | mechanism A kinetics | – | Ki (HDAC1): ~0.003 nM
O=C(CCCCC[C@@H]1NC(=O)[C@H]2CCCN2C(=O)[C@H](Cc2ccccc2)NC(=O)[C@H](Cc2ccccc2)NC1=O)NO [Compound 7c, TpxB^Asuha] (cyclo([Asu](NHOH)FF[dP])) | ~6.3 fold incr. | ~2.2 fold incr. | substantial increase in PGRN | – | – | – | over 20 min | Ki [5]: ~0.02 nM
CCC(=O)CCCCC[C@@H]1NC(=O)[C@H]2CCCCN2C(=O)[C@H]([C@@H](C)CC)NC(=O)[C@H](Cc2cn(OC)c3ccccc23)NC1=O [Compound 8a, apicidin] | ~3.3 fold incr. | ~1.7 fold incr. | – | – | 790 ± 20 | fast-on/fast-off binding kinetics | – | Mechanism of binding HDAC1 (HDAC1): fast-on/fast-off binding kinetics
C/C=C1\NC(=O)[C@H]2CSSCC/C=C/[C@H](CC(=O)N[C@H](C(C)C)C(=O)N2)OC(=O)[C@H](C(C)C)NC1=O [Compound 10, romidepsin] | ~2.3 fold incr. | ~4.1 fold incr. | substantial increase in PGRN | slow, tight-binding (mechanism B) | – | – | over 20 min | Ki (HDAC1): ~0.02 nM; Cellular viability [6]: impaired cellular viability
C[C@@H]1NC(=O)[C@H]2CCCN2C(=O)[C@H](CCCCCC(=O)[C@@H]2CO2)NC(=O)[C@@H](C)NC1=O [Compound S2, HC-toxin] | – | – | – | – | – | – | – | Mechanism of binding HDAC6 (HDAC6): fast-on/fast-off kinetics
trichostatin A [Compound S1] | – | – | – | slow, tight-binding inhibition profiles (mechanism B) | – | slow, tight-binding inhibition profiles (mechanism B) | over 20 min | –
